Assay results: PubChem BioAssay AID256 (DTP/NCI, 2004)
Where “and” joins values, the source holds several entries; their conditions need not be identical. Equal entries are not always repeated. Inconclusive results and toxic doses are left out. How the source made its calls: active means survival T/C of 150% or more; inactive means T/C below 125% in these data.

Tested on: CD2F1 mice, L1210 leukemia ip, survival T/C
Test: NCI In Vivo Anticancer Drug Screen. Data for tumor model L1210 Leukemia (intraperitoneal) in CD2F1 (CDF1) mice
Settings: higher = longer survival
In short: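 Tumor-bearing mice (transplanted tumor) were split into treated and vehicle control groups, and the measured endpoint of each treated group was divided by that of its vehicle controls.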

[1] = endpoint: mean survival time, dose: 25.0 mg/kg/injection, schedule: Q04DX002 (ip), vehicle: saline with Tween-80
[2] = endpoint: mean survival time, dose: 50.0 mg/kg/injection, schedule: Q04DX002 (ip), vehicle: saline with Tween-80
[3] = endpoint: mean survival time, dose: 100.0 mg/kg/injection, schedule: Q01DX001 (ip), vehicle: saline with Tween-80
[4] = endpoint: mean survival time, dose: 200.0 mg/kg/injection, schedule: Q01DX001 (ip), vehicle: saline with Tween-80
[5] = endpoint: mean survival time, dose: 100.0 mg/kg/injection, schedule: Q04DX003 (ip), vehicle: saline with Tween-80
[6] = endpoint: mean survival time, dose: 200.0 mg/kg/injection, schedule: Q04DX003 (ip), vehicle: saline with Tween-80
[7] = endpoint: mean survival time, dose: 400.0 mg/kg/injection, schedule: Q04DX003 (ip), vehicle: saline with Tween-80
[8] = endpoint: mean survival time, dose: 100.0 mg/kg/injection, schedule: Q01DX009 (ip), vehicle: saline with Tween-80
[9] = endpoint: mean survival time, dose: 200.0 mg/kg/injection, schedule: Q01DX009 (ip), vehicle: saline with Tween-80
[10] = endpoint: mean survival time, dose: 400.0 mg/kg/injection, schedule: Q01DX009 (ip), vehicle: saline with Tween-80

Measured: T/C

CC1=C(C)C(=O)O[C@@H]([C@](C)(O)[C@]2(O)CC[C@@]3(O)[C@@H]4C[C@H]5O[C@]56[C@@H](O)C=CC(=O)[C@]6(C)[C@H]4CC[C@]23C)C1
inactive: endpoint: mean survival time, dose: 1.0 mg/kg/injection, schedule: Q01DX009 (ip), vehicle: saline 113 % of control | endpoint: mean survival time, dose: 2.0 mg/kg/injection, schedule: Q01DX009 (ip), vehicle: saline 104 % of control | endpoint: mean survival time, dose: 2.0 mg/kg/injection, schedule: Q01DX009 (ip), vehicle: suspension in saline 105 % of control | endpoint: mean survival time, dose: 4.0 mg/kg/injection, schedule: Q01DX009 (ip), vehicle: saline 106 % of control | endpoint: mean survival time, dose: 4.0 mg/kg/injection, schedule: Q01DX009 (ip), vehicle: suspension in saline 108 % of control | endpoint: mean survival time, dose: 8.0 mg/kg/injection, schedule: Q01DX009 (ip), vehicle: saline 111 % of control | endpoint: mean survival time, dose: 8.0 mg/kg/injection, schedule: Q01DX009 (ip), vehicle: suspension in saline 114 % of control | endpoint: mean survival time, dose: 16.0 mg/kg/injection, schedule: Q01DX009 (ip), vehicle: saline 103 % of control | endpoint: mean survival time, dose: 16.0 mg/kg/injection, schedule: Q01DX009 (ip), vehicle: suspension in saline 108 % of control | endpoint: mean survival time, dose: 32.0 mg/kg/injection, schedule: Q01DX009 (ip), vehicle: saline 87 % of control | endpoint: mean survival time, dose: 32.0 mg/kg/injection, schedule: Q01DX009 (ip), vehicle: suspension in saline 96 % of control

CCOC(=O)/C(Cc1cc(Cl)nnc1Cl)=N\N
inactive: endpoint: mean survival time, dose: 12.5 mg/kg/injection, schedule: Q04DX002 (ip), vehicle: saline with Tween-80 113 % of control | [1] 98 % of control | [2] 87 % of control

Cc1ccc(-n2c(O)c(N=Nc3ccccc3)c(=O)n(-c3ccc(C)cc3)c2=S)cc1
inactive: [3] 95 % of control | [4] 100 % of control | endpoint: mean survival time, dose: 400.0 mg/kg/injection, schedule: Q01DX001 (ip), vehicle: saline with Tween-80 97 % of control

O=C1OC(=O)C2C3C=CC(C12)C1C2C(=O)OC(=O)C2C31 (stereo not drawn)
inactive: [5] 91 % of control and 101 % of control | [6] 94 % of control and 97 % of control | [7] 123 % of control and 94 % of control | endpoint: mean survival time, dose: 600.0 mg/kg/injection, schedule: Q04DX003 (ip), vehicle: saline with Tween-80 110 % of control

CC1(C)OC2C(CO)OC(NC3=C(C#N)CCCC3)C2O1 (stereo not drawn)
inactive: endpoint: mean survival time, dose: 12.5 mg/kg/injection, schedule: Q01DX005 (ip), vehicle: other 103 % of control | endpoint: mean survival time, dose: 25.0 mg/kg/injection, schedule: Q01DX005 (ip), vehicle: other 105 % of control | endpoint: mean survival time, dose: 50.0 mg/kg/injection, schedule: Q01DX005 (ip), vehicle: other 103 % of control | endpoint: mean survival time, dose: 100.0 mg/kg/injection, schedule: Q01DX005 (ip), vehicle: other 97 % of control | endpoint: mean survival time, dose: 200.0 mg/kg/injection, schedule: Q01DX005 (ip), vehicle: other 103 % of control

C/C(=N\O)c1ccc2c3c(ccc([N+](=O)[O-])c13)CC2
inactive: [5] 98 % of control | [6] 98 % of control | [7] 103 % of control

N#C[S-].N#C[S-].[NH-]CC[NH-].[Pt+4]
inactive: endpoint: mean survival time, dose: 10.0 mg/kg/injection, schedule: Q04DX003 (ip), vehicle: saline with Tween-80 97 % of control | endpoint: mean survival time, dose: 20.0 mg/kg/injection, schedule: Q04DX003 (ip), vehicle: saline with Tween-80 98 % of control | endpoint: mean survival time, dose: 40.0 mg/kg/injection, schedule: Q04DX003 (ip), vehicle: saline with Tween-80 106 % of control

Cc1ccc(S(=O)(=O)N/N=C/c2ccncc2)cc1
inactive: endpoint: mean survival time, dose: 25.0 mg/kg/injection, schedule: Q01DX009 (ip), vehicle: Klucel (hydroxypropylcellulose) (HPC) 104 % of control | endpoint: mean survival time, dose: 50.0 mg/kg/injection, schedule: Q01DX009 (ip), vehicle: Klucel (hydroxypropylcellulose) (HPC) 105 % of control | endpoint: mean survival time, dose: 100.0 mg/kg/injection, schedule: Q01DX009 (ip), vehicle: Klucel (hydroxypropylcellulose) (HPC) 98 % of control | endpoint: mean survival time, dose: 200.0 mg/kg/injection, schedule: Q01DX009 (ip), vehicle: Klucel (hydroxypropylcellulose) (HPC) 98 % of control

OCCC(c1ccccc1)(c1ccccc1)c1ccccc1
inactive: endpoint: mean survival time, dose: 6.25 mg/kg/injection, schedule: Q01DX009 (ip), vehicle: saline with Tween-80 113 % of control | endpoint: mean survival time, dose: 12.5 mg/kg/injection, schedule: Q01DX009 (ip), vehicle: saline with Tween-80 108 % of control | endpoint: mean survival time, dose: 25.0 mg/kg/injection, schedule: Q01DX009 (ip), vehicle: saline with Tween-80 100 % of control

CCOC(=O)c1ncn(C2OC(COC(=O)c3ccccc3)C(OC(=O)c3ccccc3)C2OC(=O)c2ccccc2)c1C (stereo not drawn)
inactive: endpoint: median survival time, dose: 48.9 mg/kg/injection, schedule: Q01DX005 (ip), vehicle: saline with Tween-80 98 % of control | endpoint: median survival time, dose: 97.8 mg/kg/injection, schedule: Q01DX005 (ip), vehicle: saline with Tween-80 100 % of control | endpoint: median survival time, dose: 195.6 mg/kg/injection, schedule: Q01DX005 (ip), vehicle: saline with Tween-80 90 % of control

C[C@]12CCCC[C@@H]1CC[C@@H]1[C@@H]2[C@@H](O)C[C@]2(C)[C@@H](O)CC[C@@H]12
inactive: [5] 93 % of control | [6] 101 % of control

O=C(O)C(=O)O.O=C(O)C(=O)O.O=C(O)C(=O)O.[Fe]
inactive: [1] 91 % of control | [2] 91 % of control | endpoint: mean survival time, dose: 100.0 mg/kg/injection, schedule: Q04DX002 (ip), vehicle: saline with Tween-80 87 % of control

Cc1ccc(C)c(Br)c1C
inactive: endpoint: mean survival time, dose: 100.0 mg/kg/injection, schedule: Q01DX005 (ip), vehicle: saline with Tween-80 97 % of control | endpoint: mean survival time, dose: 200.0 mg/kg/injection, schedule: Q01DX005 (ip), vehicle: saline with Tween-80 101 % of control | endpoint: mean survival time, dose: 400.0 mg/kg/injection, schedule: Q01DX005 (ip), vehicle: saline with Tween-80 97 % of control

N#CN(Cc1ccc(Cl)cc1Cl)C(=O)OCOc1ccc(Cl)cc1
inactive: [5] 88 % of control | [6] 89 % of control | [7] 96 % of control

Nc1nc(N)c(-c2ccc(Cl)c(Cl)c2)c(CCc2ccc(NC(=O)Nc3ccc(S(=O)(=O)F)cc3)cc2)n1
inactive: endpoint: mean survival time, dose: 50.0 mg/kg/injection, schedule: Q01DX001 (ip), vehicle: saline with Tween-80 91 % of control | [3] 91 % of control | [4] 94 % of control

C/C(C#N)=C/c1ccccc1
inactive: endpoint: mean survival time, dose: 50.0 mg/kg/injection, schedule: Q01DX009 (ip), vehicle: saline sonified 108 % of control | endpoint: mean survival time, dose: 100.0 mg/kg/injection, schedule: Q01DX009 (ip), vehicle: saline sonified 105 % of control | [5] 100 % of control | endpoint: mean survival time, dose: 200.0 mg/kg/injection, schedule: Q01DX009 (ip), vehicle: saline sonified 105 % of control | [6] 105 % of control

Fc1c(F)c(F)c(OP2(Oc3c(F)c(F)c(F)c(F)c3F)=NP(Oc3c(F)c(F)c(F)c(F)c3F)(Oc3c(F)c(F)c(F)c(F)c3F)=NP(Oc3c(F)c(F)c(F)c(F)c3F)(Oc3c(F)c(F)c(F)c(F)c3F)=N2)c(F)c1F
inactive: [8] 103 % of control | [5] 98 % of control | [9] 101 % of control | [6] 95 % of control | [10] 95 % of control | [7] 98 % of control

O=P(NCCCl)(NCCCl)Oc1ccccc1
inactive: endpoint: mean survival time, dose: 62.5 mg/kg/injection, schedule: Q01DX001 (ip), vehicle: water 103 % of control | endpoint: mean survival time, dose: 125.0 mg/kg/injection, schedule: Q01DX001 (ip), vehicle: water 97 % of control | endpoint: mean survival time, dose: 250.0 mg/kg/injection, schedule: Q01DX001 (ip), vehicle: water 98 % of control | endpoint: mean survival time, dose: 500.0 mg/kg/injection, schedule: Q01DX001 (ip), vehicle: water 98 % of control

Nc1nc(N)c(-c2cccc(Cl)c2)c(CBr)n1
inactive: endpoint: mean survival time, dose: 6.25 mg/kg/injection, schedule: Q01DX009 (ip), vehicle: saline 102 % of control | endpoint: mean survival time, dose: 12.5 mg/kg/injection, schedule: Q01DX009 (ip), vehicle: saline 103 % of control | endpoint: mean survival time, dose: 25.0 mg/kg/injection, schedule: Q01DX009 (ip), vehicle: saline 109 % of control

CCCCCC(CN(C)C)C(/C=C/c1ccccc1)OC(=O)c1ccc([N+](=O)[O-])cc1 (stereo not drawn)
inactive: [8] 97 % of control | [5] 90 % of control | [9] 100 % of control | [6] 105 % of control | [7] 106 % of control

Clc1ccc(-c2cc(-c3ccc(Cl)cc3)cc(-c3ccc(Cl)cc3)c2)cc1
inactive: [8] 101 % of control | [9] 106 % of control | [10] 105 % of control

O=C(O)CNC(=O)COc1ccccc1
inactive: [8] 101 % of control | [5] 101 % of control | [9] 88 % of control | [6] 93 % of control | [10] 90 % of control | [7] 101 % of control
